pIC50: −log10 of the molar value.
Columns and labels:
Recombinant ROCK1 = Recombinant ROCK1 (Homo sapiens (Human), UniProt Q13464); test: Lance Ultra Kinase Assay, ROCK1 inhibition; type: biochemical; conditions: ATP at Km, 30 min pre-incubation, 1 h reaction
Description: The inhibition potency of compounds against these enzymes was assessed using Lance Ultra Kinase Assay. In brief, recombinant kinases were pre-incubated in the presence or absence of compound at room temperature for 30 minutes. The reaction was initiated by the addition of the ATP (Km) and substrate peptide which could be phosphorylated by kinases in the reaction. After 1 h incubation, the reaction was stopped by the addition of the detection reagent mix containing EDTA. The fluorescence was measured at 615 nm and 665 nm, respectively with excitation wavelength at 320 nm. The calculated signal ratio of 665 nm/615 nm is proportional to the kinase activity.

Recombinant ROCK2 = Recombinant ROCK2 (Homo sapiens (Human), UniProt O75116); test: Lance Ultra Kinase Assay, ROCK2 inhibition; type: biochemical; conditions: ATP at Km, 30 min pre-incubation, 1 h reaction
Recombinant ROCK2, sequence (O75116 whole entry): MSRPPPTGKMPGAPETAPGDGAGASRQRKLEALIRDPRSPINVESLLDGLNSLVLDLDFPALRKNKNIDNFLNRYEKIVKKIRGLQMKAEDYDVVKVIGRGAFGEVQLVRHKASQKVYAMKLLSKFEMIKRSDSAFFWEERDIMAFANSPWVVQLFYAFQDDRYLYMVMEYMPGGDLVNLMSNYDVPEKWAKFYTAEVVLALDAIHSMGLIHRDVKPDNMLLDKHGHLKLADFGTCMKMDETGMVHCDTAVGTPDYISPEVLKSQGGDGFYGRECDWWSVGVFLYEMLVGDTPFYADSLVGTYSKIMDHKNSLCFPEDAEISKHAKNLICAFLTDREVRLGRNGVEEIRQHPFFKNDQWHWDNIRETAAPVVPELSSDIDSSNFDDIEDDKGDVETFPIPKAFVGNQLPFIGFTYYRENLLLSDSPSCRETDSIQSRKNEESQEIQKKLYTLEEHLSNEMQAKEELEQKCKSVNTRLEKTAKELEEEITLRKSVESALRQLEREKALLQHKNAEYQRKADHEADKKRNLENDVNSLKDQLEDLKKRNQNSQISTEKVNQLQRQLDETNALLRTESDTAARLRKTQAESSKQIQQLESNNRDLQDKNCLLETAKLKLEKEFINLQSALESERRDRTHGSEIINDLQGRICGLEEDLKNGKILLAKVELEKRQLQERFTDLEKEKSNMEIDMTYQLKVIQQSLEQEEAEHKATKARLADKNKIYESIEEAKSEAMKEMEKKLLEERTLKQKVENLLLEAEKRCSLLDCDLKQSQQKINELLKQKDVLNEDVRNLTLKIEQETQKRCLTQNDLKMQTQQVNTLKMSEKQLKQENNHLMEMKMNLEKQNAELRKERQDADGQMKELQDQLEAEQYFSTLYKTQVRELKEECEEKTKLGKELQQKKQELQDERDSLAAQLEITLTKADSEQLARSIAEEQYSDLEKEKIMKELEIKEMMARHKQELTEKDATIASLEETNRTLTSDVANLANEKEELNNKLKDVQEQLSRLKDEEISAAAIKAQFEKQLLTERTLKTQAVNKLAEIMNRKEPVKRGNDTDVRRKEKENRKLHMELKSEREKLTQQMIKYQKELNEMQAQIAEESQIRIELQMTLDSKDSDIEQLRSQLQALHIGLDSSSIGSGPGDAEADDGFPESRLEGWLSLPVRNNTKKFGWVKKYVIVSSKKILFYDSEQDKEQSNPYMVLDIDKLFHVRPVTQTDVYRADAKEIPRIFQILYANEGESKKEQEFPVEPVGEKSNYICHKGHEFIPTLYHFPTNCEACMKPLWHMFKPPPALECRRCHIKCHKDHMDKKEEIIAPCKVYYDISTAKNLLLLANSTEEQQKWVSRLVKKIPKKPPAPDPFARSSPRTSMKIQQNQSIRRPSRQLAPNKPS

Recombinant ROCK1, sequence (Q13464 whole entry): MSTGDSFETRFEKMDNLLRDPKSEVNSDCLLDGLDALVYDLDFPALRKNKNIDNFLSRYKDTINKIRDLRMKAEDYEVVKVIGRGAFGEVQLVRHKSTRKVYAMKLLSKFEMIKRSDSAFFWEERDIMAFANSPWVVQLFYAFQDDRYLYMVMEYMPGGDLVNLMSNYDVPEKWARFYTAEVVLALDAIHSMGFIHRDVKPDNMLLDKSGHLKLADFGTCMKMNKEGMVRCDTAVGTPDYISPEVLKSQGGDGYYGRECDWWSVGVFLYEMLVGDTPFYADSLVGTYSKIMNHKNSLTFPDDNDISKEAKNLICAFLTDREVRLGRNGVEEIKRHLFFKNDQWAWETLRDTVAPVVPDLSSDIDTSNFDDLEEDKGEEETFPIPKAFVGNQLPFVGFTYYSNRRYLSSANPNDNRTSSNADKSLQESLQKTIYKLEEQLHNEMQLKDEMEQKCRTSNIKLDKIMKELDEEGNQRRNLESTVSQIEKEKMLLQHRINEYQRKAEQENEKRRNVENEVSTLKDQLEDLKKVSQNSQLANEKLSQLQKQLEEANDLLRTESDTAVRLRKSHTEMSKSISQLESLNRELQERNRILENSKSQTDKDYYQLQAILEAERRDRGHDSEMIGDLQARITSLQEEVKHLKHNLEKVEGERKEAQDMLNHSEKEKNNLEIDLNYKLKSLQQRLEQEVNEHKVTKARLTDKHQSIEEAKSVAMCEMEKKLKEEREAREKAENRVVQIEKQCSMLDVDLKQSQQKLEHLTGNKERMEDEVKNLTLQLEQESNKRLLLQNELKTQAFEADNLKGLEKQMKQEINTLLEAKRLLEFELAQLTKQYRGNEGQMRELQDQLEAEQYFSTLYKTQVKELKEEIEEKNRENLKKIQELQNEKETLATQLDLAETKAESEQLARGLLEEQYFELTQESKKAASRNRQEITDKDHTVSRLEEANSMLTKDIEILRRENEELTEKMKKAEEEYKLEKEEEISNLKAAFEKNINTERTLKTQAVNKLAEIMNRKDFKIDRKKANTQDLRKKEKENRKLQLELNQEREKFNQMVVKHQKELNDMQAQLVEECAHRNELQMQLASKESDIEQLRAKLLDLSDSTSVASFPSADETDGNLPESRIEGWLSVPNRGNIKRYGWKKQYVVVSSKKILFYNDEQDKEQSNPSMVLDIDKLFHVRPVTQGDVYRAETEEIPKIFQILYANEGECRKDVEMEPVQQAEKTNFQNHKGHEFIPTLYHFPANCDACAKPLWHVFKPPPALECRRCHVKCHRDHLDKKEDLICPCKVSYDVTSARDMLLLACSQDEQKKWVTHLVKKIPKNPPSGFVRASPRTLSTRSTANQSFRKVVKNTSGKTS

pIC50 (Recombinant ROCK1)	pIC50 (Recombinant ROCK2)	SMILES
9.23	9.57	NCC(C(=O)Nc1cccc2c(-c3cn[nH]c3)c[nH]c12)c1ccc(CO)cc1 (racemic) [Example 1, N-(3-(1H-pyrazol-4-yl)-1H-indol-7-yl)-3-amino-2-(4-(hydroxymethyl)phenyl)propanamide]
9.08	9.43	COc1cccc(C(CN)C(=O)Nc2cccc3c(-c4cn[nH]c4)c[nH]c23)c1 (racemic) [Example 16, N-(3-(1H-pyrazol-4-yl)-1H-indol-7-yl)-3-amino-2-(3-methoxyphenyl)propanamide]
8.40	8.64	CN1CCN(C(C(=O)Nc2cccc3c(-c4cn[nH]c4)c[nH]c23)c2ccccc2)CC1 (racemic) [Example 46, 2-(4-methylpiperazin-1-yl)-2-phenyl-N-[3-(1H-pyrazol-4-yl)-1H-indol-7-yl]acetamide]
6.69	7.15	NCC(C(=O)Nc1cccc2c(-c3cn[nH]c3)c[nH]c12)c1cccc(CO)c1 (racemic) [Example 75, 3-amino-2-[3-(hydroxymethyl)phenyl]-N-[3-(1H-pyrazol-4-yl)-1H-indol-7-yl]propanamide]
7.08	7.49	NCc1ccc(C(CN)C(=O)Nc2cccc3c(-c4cn[nH]c4)c[nH]c23)cc1 (racemic) [Example 77, 3-amino-2-[4-(aminomethyl)phenyl]-N-[3-(1H-pyrazol-4-yl)-1H-indol-7-yl]propanamide]
7.47	7.80	CN(C)Cc1cccc(C(CN)C(=O)Nc2cccc3c(-c4cn[nH]c4)c[nH]c23)c1 (racemic) [Example 78, 3-amino-2-{3-[(dimethylamino)methyl]phenyl}-N-[3-(1H-pyrazol-4-yl)-1H-indol-7-yl]propanamide]
9.41	9.74	NCC(C(=O)Nc1cccc2c(-c3cn[nH]c3)c[nH]c12)c1ccc(N)cc1 (racemic) [Example 80, 3-amino-2-(4-aminophenyl)-N-[3-(1H-pyrazol-4-yl)-1H-indol-7-yl]propanamide]
8.89	9.02	COc1ccccc1C(CN)C(=O)Nc1cccc2c(-c3cn[nH]c3)c[nH]c12 (racemic) [Example 84, 3-amino-2-(2-methoxyphenyl)-N-[3-(1H-pyrazol-4-yl)-1H-indol-7-yl]propanamide]
9.09	9.28	NCC(C(=O)Nc1cccc2c(-c3cn[nH]c3)c[nH]c12)c1ccc(F)cc1 (racemic) [Example 85, 3-amino-2-(4-fluorophenyl)-N-[3-(1H-pyrazol-4-yl)-1H-indol-7-yl]propanamide]
8.57	9.01	N#Cc1ccc(C(CN)C(=O)Nc2cccc3c(-c4cn[nH]c4)c[nH]c23)cc1 (racemic) [Example 86, 3-amino-2-(4-cyanophenyl)-N-[3-(1H-pyrazol-4-yl)-1H-indol-7-yl]propanamide]
9.54	9.74	Cc1cccc(C(CN)C(=O)Nc2cccc3c(-c4cn[nH]c4)c[nH]c23)c1 (racemic) [Example 87, N-(3-(1H-pyrazol-4-yl)-1H-indol-7-yl)-3-amino-2-(m-tolyl)propanamide]
7.77	8.03	COCCOc1ccc(C(CN)C(=O)Nc2cccc3c(-c4cn[nH]c4)c[nH]c23)cc1 (racemic) [Example 88, 3-amino-2-[4-(2-methoxyethoxy)phenyl]-N-[3-(1H-pyrazol-4-yl)-1H-indol-7-yl]propanamide]
8.92	9.18	NCC(C(=O)Nc1cccc2c(-c3cn[nH]c3)c[nH]c12)c1cccc(Cl)c1 (racemic) [Example 89, 3-amino-2-(3-chlorophenyl)-N-[3-(1H-pyrazol-4-yl)-1H-indol-7-yl]propanamide]
8.28	9.04	COc1ccc(C(CN)C(=O)Nc2cccc3c(-c4cn[nH]c4)c[nH]c23)cc1 (racemic) [Example 90, 3-amino-2-(4-methoxyphenyl)-N-[3-(1H-pyrazol-4-yl)-1H-indol-7-yl]propanamide]
7.70	7.89	Cc1cccc(C(CN)C(=O)Nc2cccc3c(-c4cn[nH]c4)c[nH]c23)n1 (racemic) [Example 93, 3-amino-2-(6-methylpyridin-2-yl)-N-[3-(1H-pyrazol-4-yl)-1H-indol-7-yl]propanamide]
8.66	–	NC[C@H](C(=O)Nc1cccc2c(-c3cn[nH]c3)c[nH]c12)c1ccccc1 [Example 14, (R)-N-(3-(1H-pyrazol-4-yl)-1H-indol-7-yl)-3-amino-2-phenylpropanamide]
8.85	–	NC[C@@H](C(=O)Nc1cccc2c(-c3cn[nH]c3)c[nH]c12)c1ccccc1 [Example 15, (S)—N-(3-(1H-pyrazol-4-yl)-1H-indol-7-yl)-3-amino-2-phenylpropanamide]
5.92	–	Cc1n[nH]c(C)c1-c1c[nH]c2c(NC(=O)[C@H](CN)c3ccccc3)cccc12 [Example 56, (2S)-3-amino-N-[3-(3,5-dimethyl-1H-pyrazol-4-yl)-1H-indol-7-yl]-2-phenyl-propanamide]
7.01	–	N[C@@H](Cc1c[nH]cn1)C(=O)Nc1cccc2c(-c3cn[nH]c3)c[nH]c12 [Example 108, (2S)-2-amino-3-(1H-imidazol-4-yl)-N-[3-(1H-pyrazol-4-yl)-1H-indol-7-yl]propanamide]
9.02	–	NC[C@@H](C(=O)Nc1ncnc2c(-c3cn[nH]c3)c[nH]c12)c1ccccc1 [Example 155, (2S)-3-amino-2-phenyl-N-[7-(1H-pyrazol-4-yl)-5H-pyrrolo[3,2-d]pyrimidin-4-yl]propanamide]

The next lines start with the compound.

SMILES	pIC50 (Recombinant ROCK1)	pIC50 (Recombinant ROCK2)
NCC(C(=O)Nc1cccc2c(-c3cn[nH]c3)c[nH]c12)c1cccc(C(=O)O)c1 (racemic) [Example 70, 3-(2-amino-1-{[3-(1H-pyrazol-4-yl)-1H-indol-7-yl]carbamoyl}ethyl)benzoic acid]	8.66	9.22
NCC(C(=O)Nc1cccc2c(-c3cn[nH]c3)c[nH]c12)c1ccc(C(=O)O)cc1 (racemic) [Example 71, 4-(2-amino-1-{[3-(1H-pyrazol-4-yl)-1H-indol-7-yl]carbamoyl}ethyl)benzoic acid]	6.64	7.19
CN(C)C(=O)c1ccc(C(CN)C(=O)Nc2cccc3c(-c4cn[nH]c4)c[nH]c23)cc1 (racemic) [Example 72, 4-(2-amino-1-{[3-(1H-pyrazol-4-yl)-1H-indol-7-yl]carbamoyl}ethyl)-N,N-dimethylbenzamide]	6.76	7.17
CNC(=O)c1ccc(C(CN)C(=O)Nc2cccc3c(-c4cn[nH]c4)c[nH]c23)cc1 (racemic) [Example 73, 4-(2-amino-1-{[3-(1H-pyrazol-4-yl)-1H-indol-7-yl]carbamoyl}ethyl)-N-methylbenzamide]	7.09	7.70
NCc1cccc(C(CN)C(=O)Nc2cccc3c(-c4cn[nH]c4)c[nH]c23)c1 (racemic) [Example 76, 3-amino-2-[3-(aminomethyl)phenyl]-N-[3-(1H-pyrazol-4-yl)-1H-indol-7-yl]propanamide]	7.85	8.10
NCC(C(=O)Nc1cccc2c(-c3cn[nH]c3)c[nH]c12)c1ccc(O)cc1 (racemic) [Example 79, N-(3-(1H-pyrazol-4-yl)-1H-indol-7-yl)-3-amino-2-(4-hydroxyphenyl)-propanamide]	8.54	8.77
NCC(C(=O)Nc1cccc2c(-c3cn[nH]c3)c[nH]c12)c1cccc(N)c1 (racemic) [Example 81, 3-amino-2-(3-aminophenyl)-N-[3-(1H-pyrazol-4-yl)-1H-indol-7-yl]propanamide]	8.74	9.04
COc1cc(OC)cc(C(N)C(=O)Nc2cccc3c(-c4cn[nH]c4)c[nH]c23)c1 (racemic) [Example 83, 2-amino-2-(3,5-dimethoxyphenyl)-N-[3-(1H-pyrazol-4-yl)-1H-indol-7-yl]acetamide]	8.14	8.51
CC(=O)Nc1ccc(C(CN)C(=O)Nc2cccc3c(-c4cnn(C(=O)OC(C)(C)C)c4)c[nH]c23)cc1 (racemic) [Example 92, tert-butyl 4-{7-[3-amino-2-(4-acetamidophenyl)propanamido]-1H-indol-3-yl}pyrazole-1-carboxylate]	7.80	8.22
NCC(C(=O)Nc1cccc2c(-c3cn[nH]c3)c[nH]c12)C1CCOC1 (racemic) [Example 94, N-(3-(1H-pyrazol-4-yl)-1H-indol-7-yl)-3-amino-2-(tetrahydrofuran-3-yl)propanamide]	8.19	8.52
NCC(C(=O)Nc1cccc2c(-c3cn[nH]c3)c[nH]c12)C1CCCC1 (racemic) [Example 95, 3-amino-2-cyclopentyl-N-[3-(1H-pyrazol-4-yl)-1H-indol-7-yl]propanamide]	8.43	8.64
N[C@@H](C(=O)Nc1cccc2c(-c3cn[nH]c3)c[nH]c12)c1ccccc1 [Example 8, (2R)-2-amino-2-phenyl-N-[3-(1H-pyrazol-4-yl)-1H-indol-7-yl]acetamide]	7.70	–
Cc1n[nH]cc1-c1c[nH]c2c(NC(=O)[C@H](CN)c3ccccc3)cccc12 [Example 55, (S)-3-amino-N-(3-(3-methyl-1H-pyrazol-4-yl)-1H-indol-7-yl)-2-phenylpropanamide]	8.54	–
NC[C@@H](C(=O)Nc1cccc2c(-c3c[nH]nc3F)c[nH]c12)c1ccccc1 [Example 57, (S)-3-amino-N-(3-(3-fluoro-1H-pyrazol-4-yl)-1H-indol-7-yl)-2-phenylpropanamide]	8.57	–
COC[C@H](C(=O)Nc1cccc2c(-c3cn[nH]c3)c[nH]c12)N1CCN(C)CC1 [Example 121, (2R)-3-methoxy-2-(4-methylpiperazin-1-yl)-N-[3-(1H-pyrazol-4-yl)-1H-indol-7-yl]propanamide]	7.12	–
N[C@H](Cc1ccccc1)C(=O)Nc1cccc2c(-c3cn[nH]c3)c[nH]c12 [Example 126, (R)-N-(3-(1H-pyrazol-4-yl)-1H-indol-7-yl)-2-amino-3-phenylpropanamide]	8.20	–
O=C(Nc1cccc2c(-c3cn[nH]c3)c[nH]c12)[C@@H]1CCCN1 [Example 128, (2S)-N-[3-(1H-pyrazol-4-yl)-1H-indol-7-yl]pyrrolidine-2-carboxamide]	6.95	–

— patent US20250346616A1 (DIZAL (JIANGSU) PHARMACEUTICAL CO., LTD., priority 2022, published 2025)
